Test results taken from US20100227381A1, “ENHANCED BIODEGRADATION OF NON-AQUEOUS PHASE LIQUIDS USING SURFACTANT ENHANCED IN-SITU CHEMICAL OXIDATION” (VERUTEK TECHNOLOGIES, INC., priority 2007, published 2010).

What was measured:
[1] = pure compound in water; cited from earlier work
[2] = Chlorinated DNAPL dissolution in control sample without cosolvent-surfactant (equilibrium solubility in water in presence of the DNAPL); details: 25 °C, thermodynamic from solid
Procedure: In order to test the treatment of chlorinated compounds, a chlorinated solvent DNAPL was obtained from a site consisting of chlorinated solvents and chlorinated semi-volatile compounds. […]
The data collected under the experimentation conditions presented in Table 2 were obtained at 25° C. with 60 rpm shaker table mixing for 48 hours. After the shaker was shut off, the samples sat quietly for 5 minutes before the supernatant was analyzed. DNAPLmax represents the maximum concentration of DNAPL that may dissolve, given the mass of DNAPL and the volume of water.
Samples from experiment number 1, 3, 5, 7, and 8 (control) were analyzed. Additionally, measurements of interfacial tension (IFT) were conducted on the samples after the 48-hour period.

Clc1c(Cl)c(Cl)c2c(Cl)c(Cl)c(Cl)c(Cl)c2c1Cl [Octachloronaphthalene (OCN), Octachloronaphthalene]
Pure Compound Aqueous Solubility [1]: insoluble

ClC(Cl)=C(Cl)Cl [Tetrachloroethene (PCE), Tetrachloroethene]
solubility at 48 h [2]: 140 µg/mL
Pure Compound Aqueous Solubility [1]: 800 µg/mL

ClC(Cl)(Cl)C(Cl)(Cl)Cl [Hexachloroethane (HCE), Hexachloroethane]
Pure Compound Aqueous Solubility [1]: 50 µg/mL

ClC(Cl)=C(Cl)C(Cl)=C(Cl)Cl [Hexachlorobutadiene (HCBD), Hexachlorobutadiene]
Pure Compound Aqueous Solubility [1]: 0.005 µg/mL
